Patent US10087229B2, “Peptide compound” (TAKEDA PHARMACEUTICAL COMPANY LIMITED, priority 2013, dated 2018)
Square brackets hold non-standard residues; d marks the D form. Peptide text beside a SMILES is read from it. αMeF = C[C@](N)(Cc1ccccc1)C(=O)O; 4Pal = N[C@@H](Cc1ccncc1)C(=O)O; Aib = CC(C)(N)C(=O)O

system: male C57BL/6J mouse; assay: 2-days continuous subcutaneous administration test (feeding suppressive activity); assay type: in vivo; details: 10 nmol/kg/day, subcutaneous Alzet pump, 2-days cumulative food consumption, control (solvent alone) = 0%
Method: 2-Days Continuous Subcutaneous Administration Test
The feeding suppressive activity of a test compound was examined by the method described below.
The test compound was dissolved in a solvent (50% DMSO) so that sustained release would occur at 10 nmol/kg/day, and the solution was filled in the Alzet Pump (DURECT Corporation, model: 1003D). The pump thus filled with the solution to be administered was immersed in physiological saline for priming, and then used. The pump was embedded by the following method. Each male C57BL/6J mouse at 8-9 weeks of age (20-26° C., allowed to take food and water ad libitum; 12-hour bright-12-hour dark cycle) was anesthetized; the skin in the upper back thereof was incised, and the above-mentioned pump was embedded subcutaneously; the incision was sutured. After weighing, this mouse was returned to the rearing cage (reared alone), and given previously weighed food; food consumption as of 2 days after the start of administration was measured. The food consumption was calculated by subtracting the amount of remaining food from the weight of the food given on the day of the start of administration. When the food consumption of a control group receiving administration of the solvent alone was regarded as a suppression rate of 0%, the feeding suppressive activity of each test compound was evaluated on the basis of 2-days cumulative food consumption after the start of administration. The food intake suppression rate (%) of the test compound was defined as (Food consumption of the control group−Food consumption of the test compound-administered group)/Food consumption of the control group×100.

| Compound | Food intake suppression (%) |
| --- | --- |
| CC(C)C[C@H](NC(=O)[C@H](CC(C)C)NC(=O)[C@H](Cc1c[nH]c2ccccc12)NC(=O)[C@H](CCCCN)NC(=O)[C@@H](NC(=O)[C@H](Cc1ccccc1)NC(=O)[C@H](CCC(=O)O)NC(=O)[C@H](C)NC(=O)[C@H](CCC(N)=O)NC(=O)[C@H](C)NC(=O)[C@H](CCC(N)=O)NC(=O)[C@H](CCCCN)NC(=O)[C@H](CC(=O)O)NC(=O)[C@H](CC(C)C)NC(=O)C(C)(C)NC(=O)[C@H](Cc1ccncc1)NC(=O)C(C)(C)NC(=O)[C@H](Cc1ccc(O)cc1)NC(=O)[C@H](CC(=O)O)NC(=O)[C@H](CO)NC(=O)[C@@H](NC(=O)[C@](C)(Cc1ccccc1)NC(=O)[C@@H](NC(=O)CNC(=O)[C@H](CCC(=O)O)NC(=O)C(C)(C)NC(=O)[C@@H](N)Cc1ccc(O)cc1)[C@@H](C)O)[C@@H](C)O)C(C)C)C(=O)N[C@@H](CCCCN)C(=O)NCC(=O)NCC(=O)N1CCC[C@H]1C(=O)N[C@@H](CO)C(=O)N[C@@H](CO)C(=O)NCC(=O)N[C@@H](C)C(=O)N1CCC[C@H]1C(=O)N1CCC[C@H]1C(=O)N1CCC[C@H]1C(=O)N[C@@H](CO)C(=O)N[C@@H](CCCCN)C(N)=O [Example 12] (H-Y[Aib]EGT[αMeF]TSDY[Aib][4Pal][Aib]LDKQAQAEFVKWLLKGGPSSGAPPPSK-NH2) | 55.07% |
| CC[C@H](C)[C@H](NC(=O)C(C)(C)NC(=O)[C@H](Cc1ccc(O)cc1)NC(=O)[C@H](CC(=O)O)NC(=O)[C@H](CO)NC(=O)[C@@H](NC(=O)[C@](C)(Cc1ccccc1)NC(=O)[C@@H](NC(=O)CNC(=O)[C@H](CCC(=O)O)NC(=O)C(C)(C)NC(=O)[C@@H](N)Cc1ccc(O)cc1)[C@@H](C)O)[C@@H](C)O)C(=O)N[C@@](C)(Cc1ccccc1)C(=O)N[C@@H](CC(C)C)C(=O)N[C@@H](CC(=O)O)C(=O)N[C@@H](CCCCN)C(=O)N[C@@H](CCC(N)=O)C(=O)N[C@@H](C)C(=O)N[C@@H](CCC(N)=O)C(=O)N[C@@H](C)C(=O)N[C@@H](CCC(=O)O)C(=O)N[C@@H](Cc1ccccc1)C(=O)N[C@H](C(=O)N[C@@H](CCCCN)C(=O)N[C@@H](Cc1c[nH]c2ccccc12)C(=O)N[C@@H](CC(C)C)C(=O)N[C@@H](CC(C)C)C(=O)N[C@@H](CCCCN)C(=O)NCC(=O)NCC(=O)N1CCC[C@H]1C(=O)N[C@@H](CO)C(=O)N[C@@H](CO)C(=O)NCC(=O)N[C@@H](C)C(=O)N1CCC[C@H]1C(=O)N1CCC[C@H]1C(=O)N1CCC[C@H]1C(=O)N[C@@H](CO)C(=O)N[C@@H](CCCCN)C(N)=O)C(C)C [Example 13] (H-Y[Aib]EGT[αMeF]TSDY[Aib]I[αMeF]LDKQAQAEFVKWLLKGGPSSGAPPPSK-NH2) | 57.12% |
| CC[C@H](C)[C@H](NC(=O)[C@H](C)NC(=O)[C@H](Cc1ccc(O)cc1)NC(=O)[C@H](CC(=O)O)NC(=O)[C@H](CO)NC(=O)[C@@H](NC(=O)[C@](C)(Cc1ccccc1)NC(=O)[C@@H](NC(=O)CNC(=O)[C@H](CCC(=O)O)NC(=O)C(C)(C)NC(=O)[C@@H](N)Cc1ccc(O)cc1)[C@@H](C)O)[C@@H](C)O)C(=O)NC(C)(C)C(=O)N[C@@H](CC(C)C)C(=O)N[C@@H](CC(=O)O)C(=O)N[C@@H](CCCCN)C(=O)N[C@@H](CCC(N)=O)C(=O)N[C@@H](C)C(=O)N[C@@H](CCC(N)=O)C(=O)N[C@@H](C)C(=O)N[C@@H](CCC(=O)O)C(=O)N[C@@H](Cc1ccccc1)C(=O)N[C@H](C(=O)N[C@@H](CCCCN)C(=O)N[C@@H](Cc1c[nH]c2ccccc12)C(=O)N[C@@H](CC(C)C)C(=O)N[C@@H](CC(C)C)C(=O)N[C@@H](CCCCN)C(=O)NCC(=O)NCC(=O)N1CCC[C@H]1C(=O)N[C@@H](CO)C(=O)N[C@@H](CO)C(=O)NCC(=O)N[C@@H](C)C(=O)N1CCC[C@H]1C(=O)N1CCC[C@H]1C(=O)N1CCC[C@H]1C(=O)N[C@@H](CO)C(N)=O)C(C)C [Example 5] (H-Y[Aib]EGT[αMeF]TSDYAI[Aib]LDKQAQAEFVKWLLKGGPSSGAPPPS-NH2) | 60.99% |
